Laboratory results as given in patent US5672715A, “Herbicidal substituted 3-aryl-pyrazoles” (Monsanto Company, priority 1995, dated 1997).
Several values for one entry are separate records, joined by “and”; a condition that tells them apart may be missing. Equal values may be shown once.

Key:
Type in all cases: in vivo
Common Chickweed [1] = assay: pre-emergence herbicide test; conditions: pre-emergence, 0.25 lb/A; read-out: % plant inhibition
Method: (§1) Topsoil was placed in an aluminum pan and compacted to a depth of 1.3 to 1.6 cm from the top of the pan. On the top of the soil was placed a predetermined number of seeds of each of several monocotyledonous and dicotyledonous annual plant species and/or vegetative propagules of various perennial plant species. The pan was then level filled with a cover layer of topsoil to which was added a known amount of active ingredient either prior to or after application of the cover layer. The active ingredient was dissolved or suspended in an organic solvent, e.g., acetone, or water as carrier for application to the cover layer. The pans were moved to a greenhouse bench where they were thereafter watered from below as needed to give adequate moisture for germination and growth. In some cases, an initial overhead irrigation of 1/4 inch of water was applied immediately after treatment.
(§2) Approximately 14 days after seeding and treating, the pans were observed and the results (% inhibition) were recorded.
(§3) The tables below summarize the results of the pre-emergence herbicidal activity tests of compounds of this invention tested with warm season plants (Tables 2a-2d) and cool season plants (Tables 3a and 3b). The herbicidal rating shown in these tables is the percent inhibition of each plant species. The plant species usually regarded as weeds are identified in the tables by single letter headings and crop species identified by two letter headings both headings being above the columns in accordance with the following legend: […]

Birdseye Speedwell [2] = assay: pre-emergence herbicide test; conditions: pre-emergence, 0.25 lb/A; read-out: % plant inhibition
Method: as §1, §2, §3

Blackgrass [3] = assay: pre-emergence herbicide test; conditions: Alopecurus myosuroides, pre-emergence, 0.25 lb/A; read-out: % plant inhibition
Method: as §1, §2, §3

Rape [4] = assay: pre-emergence herbicide test; conditions: 0.25 lb/A; for inhibition at 280.212 g/ha: pre-emergence, read-out: % plant inhibition
Method: as §1, §2, §3

Wheat [5] = assay: pre-emergence herbicide test; conditions: 0.25 lb/A
Method: as §1, §2, §3

Downy Brome [6] = assay: pre-emergence herbicide test; conditions: 0.25 lb/A; for inhibition at 280.212 g/ha: Bromus tectorum, pre-emergence, read-out: % plant inhibition
Method: as §1, §2, §3

Giant Foxtail [7] = assay: pre-emergence herbicide test; conditions: 0.25 lb/A; for inhibition at 280.212 g/ha: Setaria faberi, pre-emergence, read-out: % plant inhibition
Method: as §1, §2, §3

Velvetleaf [8] = assay: pre-emergence herbicide test; conditions: 0.25 lb/A; for inhibition at 280.212 g/ha: Abutilon theophrasti, pre-emergence, read-out: % plant inhibition
Method: as §1, §2, §3

Green Foxtail [9] = assay: pre-emergence herbicide test; conditions: Setaria viridis, pre-emergence; 0.25 lb/A; read-out: % plant inhibition
Method: as §1, §2, §3

Wild Oats [10] = assay: pre-emergence herbicide test; conditions: 0.25 lb/A; for inhibition at 280.212 g/ha: Avena fatua, pre-emergence, read-out: % plant inhibition
Method: as §1, §2, §3

Barnyardgrass [11] = assay: pre-emergence herbicide test; conditions: 0.25 lb/A; for inhibition at 280.212 g/ha: Echinochloa crus-galli, pre-emergence, read-out: % plant inhibition
Method: as §1, §2, §3

Seedling Johnsongrass [12] = assay: pre-emergence herbicide test; conditions: 0.25 lb/A; for inhibition at 280.212 g/ha: Sorghum halepense, pre-emergence, read-out: % plant inhibition
Method: as §1, §2, §3

Corn [13] = assay: pre-emergence herbicide test; conditions: 0.25 lb/A
Method: as §1, §2, §3

Bedstraw Catchweed [14] = assay: pre-emergence herbicide test; conditions: 0.25 lb/A; for inhibition at 280.212 g/ha: Galium aparine, pre-emergence, read-out: % plant inhibition
Method: as §1, §2, §3

Common Chickweed [15] = assay: post-emergence herbicide test; conditions: post-emergence, 0.25 lb/A; read-out: % plant inhibition
From the text: (§4) Topsoil was placed in aluminum pans having holes in the bottom and compacted to a depth of 1.3 to 1.6 cm from the top of the pan. A predetermined number of seeds of each of several dicotyledonous and monocotyledonous annual plant species and/or vegetative propagules for the perennial plant species were placed on the soil and pressed into the soil surface. The seeds and/or vegetative propagules were covered with soil and leveled. The pans were then placed on a bench in the greenhouse and watered either from overheard irrigation or by subirrigation as needed. After the plants reach the desired age (two to three weeks), each pan, is removed individually to a spraying chamber and sprayed by means of an atomizer, operating at a spray pressure of 170.3 kPa […] at the application rates noted. In the spray solution was an amount of an emulsifying agent mixture to give a spray solution or suspension which contains about 0.4% by volume of the emulsifier. The spray solution or suspension contained a sufficient amount of the candidate chemical in order to give application rates of the active ingredient corresponding to those shown in Tables 4 and 5, while applying a total amount of solution or suspension equivalent to 1870 L/Ha (200 gallons/acre). […] The post-emergent herbicidal activity shown in these tables is the percent inhibition of each plant species. Testing with warm season and cool season plants is shown in tables 4a-4d and […], respectively.

Birdseye Speedwell [16] = assay: post-emergence herbicide test; conditions: 0.25 lb/A
From the text: as §4

Blackgrass [17] = assay: post-emergence herbicide test; conditions: Alopecurus myosuroides, post-emergence, 0.25 lb/A; read-out: % plant inhibition
From the text: as §4

Morning Glory [18] = assay: post-emergence herbicide test; conditions: Ipomoea, post-emergence, 0.25 lb/A; read-out: % plant inhibition
From the text: as §4

Rape [19] = assay: post-emergence herbicide test; conditions: post-emergence, 0.25 lb/A; read-out: % plant inhibition
From the text: as §4

Wheat [20] = assay: post-emergence herbicide test; conditions: Triticum aestivum, post-emergence, 0.25 lb/A; read-out: % plant inhibition
From the text: as §4

Downy Brome [21] = assay: post-emergence herbicide test; conditions: Bromus tectorum, post-emergence, 0.25 lb/A; read-out: % plant inhibition
From the text: as §4

Soybean = assay: post-emergence herbicide test; conditions: Glycine max, post-emergence, 0.25 lb/A; read-out: % plant inhibition
From the text: as §4

Giant Foxtail [22] = assay: post-emergence herbicide test; conditions: Setaria faberi, post-emergence, 0.25 lb/A; read-out: % plant inhibition
From the text: as §4

Velvetleaf [23] = assay: post-emergence herbicide test; conditions: 0.25 lb/A; for inhibition at 280.212 g/ha: Abutilon theophrasti, post-emergence, read-out: % plant inhibition
From the text: as §4

Cocklebur [24] = assay: post-emergence herbicide test; conditions: Xanthium strumarium, post-emergence, 0.25 lb/A; read-out: % plant inhibition
From the text: as §4

Green Foxtail [25] = assay: post-emergence herbicide test; conditions: Setaria viridis, post-emergence, 0.25 lb/A; read-out: % plant inhibition
From the text: as §4

Wild Oats [26] = assay: post-emergence herbicide test; conditions: Avena fatua, post-emergence, 0.25 lb/A; read-out: % plant inhibition
From the text: as §4

Barnyardgrass [27] = assay: post-emergence herbicide test; conditions: Echinochloa crus-galli, post-emergence, 0.25 lb/A; read-out: % plant inhibition
From the text: as §4

Seedling Johnsongrass [28] = assay: post-emergence herbicide test; conditions: 0.25 lb/A; for inhibition at 280.212 g/ha: Sorghum halepense, post-emergence, read-out: % plant inhibition
From the text: as §4

Corn [29] = assay: post-emergence herbicide test; conditions: 0.25 lb/A; for inhibition at 280.212 g/ha: Zea mays, post-emergence, read-out: % plant inhibition
From the text: as §4

Bedstraw Catchweed [30] = assay: post-emergence herbicide test; conditions: 0.25 lb/A
From the text: as §4

Morning Glory [31] = assay: pre-emergence herbicide test; conditions: 0.25 lb/A
Method: as §1, §2, §3

Cocklebur [32] = assay: pre-emergence herbicide test; conditions: 0.25 lb/A
Method: as §1, §2, §3

Compound | inhibition at 280.212 g/ha (Common Chickweed [1]) | inhibition at 280.212 g/ha (Birdseye Speedwell [2]) | inhibition at 280.212 g/ha (Blackgrass [3]) | inhibition at 280.212 g/ha (Rape [4]) | inhibition at 280.212 g/ha (Downy Brome [6]) | inhibition at 280.212 g/ha (Giant Foxtail [7]) | % plant inhibition (Velvetleaf [8]) | inhibition at 280.212 g/ha (Velvetleaf [8]) | inhibition at 280.212 g/ha (Green Foxtail [9]) | inhibition at 280.212 g/ha (Wild Oats [10]) | inhibition at 280.212 g/ha (Barnyardgrass [11]) | inhibition at 280.212 g/ha (Seedling Johnsongrass [12]) | inhibition at 280.212 g/ha (Bedstraw Catchweed [14]) | inhibition at 280.212 g/ha (Velvetleaf [23]) | inhibition at 280.212 g/ha (Seedling Johnsongrass [28]) | inhibition at 280.212 g/ha (Corn [29]) | further results
COC(=O)c1cc(-c2nn(C)c(C(F)(F)F)c2C)c(F)cc1Cl [Compound 18] | 100% | 100% | 95% | 100% | 85% | 95% | 100% | 98% | 100% | 80% | 95% | 90% | 100% | 90% | 35% | 15% | inhibition at 280.212 g/ha (Wheat [5]; Triticum aestivum, pre-emergence, read-out: % plant inhibition): 0%; % plant inhibition (Giant Foxtail [7]): 100% and 99%; % plant inhibition (Barnyardgrass [11]): 99% and 93%; % plant inhibition (Seedling Johnsongrass [12]): 95% and 85%; inhibition at 280.212 g/ha (Corn [13]; Zea mays, pre-emergence, read-out: % plant inhibition): 15%; inhibition at 280.212 g/ha (Common Chickweed [15]): 35%; inhibition at 280.212 g/ha (Birdseye Speedwell [16]; post-emergence, read-out: % plant inhibition): 60%; inhibition at 280.212 g/ha (Blackgrass [17]): 20%; inhibition at 280.212 g/ha (Morning Glory [18]): 50%; inhibition at 280.212 g/ha (Rape [19]): 15%; inhibition at 280.212 g/ha (Wheat [20]): 7%; inhibition at 280.212 g/ha (Downy Brome [21]): 25%; inhibition at 280.212 g/ha (Soybean): 40%; inhibition at 280.212 g/ha (Giant Foxtail [22]): 5%; inhibition at 280.212 g/ha (Cocklebur [24]): 65%; inhibition at 280.212 g/ha (Green Foxtail [25]): 20%; inhibition at 280.212 g/ha (Wild Oats [26]): 20%; inhibition at 280.212 g/ha (Barnyardgrass [27]): 5%; inhibition at 280.212 g/ha (Bedstraw Catchweed [30]; Galium aparine, post-emergence, read-out: % plant inhibition): 65%
Cc1c(-c2cc(C(=O)OC(C)C)c(Cl)cc2F)nn(C)c1C(F)(F)F [Compound 8, 2-Chloro-5-[1,4-dimethyl-5-(trifluoromethyl)-1H-pyrazol-3-yl]-4-fluorobenzoic acid, 1-methylethyl ester] | 100% | 100% | 100% | 98% | 100% | 100% | 100% | 98% | 100% | 95% | 100% | 100% | 90% | 90% | 70% | 15% | % plant inhibition (Morning Glory [31]): 100%; % plant inhibition (Rape [4]): 100% and 90%; % plant inhibition (Wheat [5]): 0%; % plant inhibition (Downy Brome [6]): 99%; % plant inhibition (Cocklebur [32]): 80% and 75% and 99% and 85%; % plant inhibition (Wild Oats [10]): 100%; % plant inhibition (Corn [13]): 85% and 90% and 70% and 100%; % plant inhibition (Bedstraw Catchweed [14]): 100%; % plant inhibition (Birdseye Speedwell [16]): 55%; % plant inhibition (Velvetleaf [23]): 99%; % plant inhibition (Seedling Johnsongrass [28]): 90%; % plant inhibition (Corn [29]): 20%; % plant inhibition (Bedstraw Catchweed [30]): 60% and 95%
